Assays:
2-HG plasma levels = assay: Phase 1/2 study AG221-C-001: pharmacodynamic response (2-HG plasma levels); type: in vivo, human
Protocol: 2HG can be detected in a sample by the methods of PCT Publication No. WO 2011/050210 and US Publication No. US2012/0121515 hereby incorporated by reference in their entirety, or by analogous methods. In an exemplary method, 2HG can be detected in a sample by LC/MS. The sample is mixed 80:20 with methanol, and centrifuged at 3,000 rpm for 20 minutes at 4 degrees Celsius. The resulting supernatant can be collected and stored at −80 degrees Celsius prior to LC-MS/MS to assess 2-hydroxyglutarate levels. A variety of different liquid chromatography (LC) separation methods can be used. Each method can be coupled by negative electrospray ionization (ESI, −3.0 kV) to triple-quadrupole mass spectrometers operating in multiple reaction monitoring (MRM) mode, with MS parameters optimized on infused metabolite standard solutions. Metabolites can be separated by reversed phase chromatography using 10 mM tributyl-amine as an ion pairing agent in the aqueous mobile phase, according to a variant of a previously reported method (Luo et al. J Chromatogr A 1147, 153-64, 2007). One method allows resolution of TCA metabolites: t=0, 50% B; t=5, 95% B; t=7, 95% B; t=8, 0% B, where B refers to an organic mobile phase of 100% methanol. Another method is specific for 2-hydroxyglutarate, running a fast linear gradient from 50%-95% B (buffers as defined above) over 5 minutes. A Synergi Hydro-RP, 100 mm×2 mm, 2.1 μm particle size (Phenomonex) can be used as the column, as described above. Metabolites can be quantified by comparison of peak areas with pure metabolite standards at known concentration. Metabolite flux studies from ^13C-glutamine can be performed as described, e.g., in Munger et al. Nat Biotechnol 26, 1179-86, 2008. […]
Subjects in the dose escalation phase and Part 1 Expansion also will undergo PK/PD assessments over a 10-hour period on C1D15, C2D1, and C4D1. […] Available bone marrow biopsy samples also will be assessed for 2-HG and α-KG levels. […]

[1] = test system: rrAML with an IDH2 mutation; assay: FLT3 mutation status and Compound 1 response in rrAML patients of the Example 1 trial (FoundationOne Heme panel, LabPMM PCR); type: in vivo, human
Protocol: A subset of the clinical samples from the trial described in Example 1 were analyzed at screening. Sample types included bone marrow, peripheral blood and mononuclear cells isolated from bone marrow or peripheral blood. DNAs were extracted from these samples and sequenced at Foundation Medicine (Heme Panel, see http://foundationone.com/learn.php) using next generation sequencing technique.
Overall response rate (ORR), the primary efficacy endpoint, is defined as the rate of responders including complete remission (CR), CR with incomplete platelet recovery (CRp), marrow CR (mCR) (morphologic leukemia-free state [MLFS] for subjects with AML), CR with incomplete hematologic recovery (CRi), and partial remission (PR). Other measures of clinical activity including complete remission rate (CRR), duration of remission/response, event-free survival, overall survival, and time to remission/response will be summarized.
FoundationOne Heme panel analysis was performed on 100 screening samples from rrAML patients in the trial described in Example 1. Sample types included peripheral blood and bone marrow.
Therefore, the lower frequency reported in the above study is likely due to lack of recruitment of patients with FLT3-ITD mutations.
Tables 8 provides a contingency table indicating lack of statistical significance for lower ORR observed in efficacy evaluable patients presenting with FLT3-ITD and Table 9 provides a contingency table indicating statistical significance of lower ORR seen in patients presenting with either FLT3-ITD or FLT3 point mutation (PM).

[2] = FLT3-ITD+ efficacy evaluable patients
[3] = FLT3-ITD+/PM+ patients (either FLT3-ITD or FLT3 point mutation)
[4] = FLT3-ITD− efficacy evaluable patients

**Q.** How did the “reduction in 2-HG plasma levels” value (2-HG plasma levels; by Day 1 of Cycle 2, subjects of AG221-C-001) turn out when CC(C)(O)CNc1nc(Nc2ccnc(C(F)(F)F)c2)nc(-c2cccc(C(F)(F)F)n2)n1 [COMPOUND 1, 2-methyl-1-[(4-[6-(trifluoromethyl)pyridin-2-yl]-6-{[2-(trifluoromethyl)pyridin-4-yl]amino}-1,3,5-triazin-2-yl)amino]propan-2-ol] was run?
**A.** Its value is “sustained reduction”.

**Q.** And the “inhibition of 2-HG plasma levels” value (2-HG plasma levels; most subjects with R140Q mutation, all doses)?
**A.** Its value is “up to 98%”.

**Q.** What about the “exposure and inhibition of 2-HG in relation to dose” value (2-HG plasma levels; subjects with R172K mutation) of the same compound?
**A.** Its value is “Increasing dose is associated with higher exposure and inhibition of 2-HG”.

**Q.** And the “No Response (number of patients)” value [1, 2]?
**A.** Its value is 3.

**Q.** What about the “Response (number of patients)” value [1, 2] of the same compound?
**A.** The value was 0.

**Q.** And the ORR ([1]; FLT3-ITD+ patients)?
**A.** Its ORR is 0%.

**Q.** And the “No Response (number of patients)” value [1, 3]?
**A.** Its value is 9.

**Q.** And the “Response (number of patients)” value [1, 3]?
**A.** The value was 1.

**Q.** And the ORR ([1]; FLT3-ITD+/PM+ patients (mFLT3))?
**A.** The ORR was 10.0%.

**Q.** What about the “No Response (number of patients)” value [1, 4] of the same compound?
**A.** The value was 38.

**Q.** And the “Response (number of patients)” value [1, 4]?
**A.** The value was 33.

**Q.** What about the “No Response (number of patients)” value ([1]; FLT3-ITD−/PM− patients) of the same compound?
**A.** Its value is 42.

**Q.** What about the “Response (number of patients)” value ([1]; FLT3-ITD−/PM− patients) of the same compound?
**A.** Its value is 40.

**Q.** What about the “Odds ratio (response, mFLT3 vs FLT3-ITD−/PM−)” value ([1]; Fisher's Exact test, p = 0.039) of the same compound?
**A.** The value was 0.117.

**Q.** What about the “Odds ratio (response, FLT3-ITD+ vs FLT3-ITD−)” value ([1]; Fisher's Exact test, p = 0.249) of the same compound?
**A.** The value was 0.164.

Source: patent US10137130B2, “Methods of treatment of malignancies” (Celgene Corporation, priority 2016, dated 2018)
